According to patent US20200000087A1, “COMPOSITIONS FOR APPLICATION TO AERIAL PARTS OF PLANTS” (EXOSECT LIMITED, priority 2017, published 2020):
Like-named read-outs stand apart in the source and are kept apart here.

Experiments:
[1] = system: German cockroach, Blattella germanica; conditions: cited from earlier work
[2] = Azoxystrobin retention on maize seed after Heubach mechanical stress (GC-ECD); assay type: physicochemical
Method: • Test item type and 1. Polyethylene Entostat (W3800) containing 499 mg/g contents: Azoxystrobin fungicide. • 2. Carnauba Entostat (W3738) containing 435 mg/g Azoxystrobin fungicide. • Test item rate: When using a commercial standard biological efficacy in maize is observed at […] seed. W3800 and W3738 were applied at […] of that commercial standard a.s. rate Table 1. • Application interval: Single application at the start of the study • Supplier: Entostat, Exosect, UK • Azoxystrobin, Albaugh, USA. • Storage: Pesticide cabinet in formulation laboratory, Exosect
The independent factors were, dry powder seed treatment formulation type (W3800 and W3738) and Azoxystrobin application rate (Low, Medium, and High). Residues of the active ingredient Azoxystrobin recovered from maize before and after mechanical stress were quantified. Each treatment will be replicated ten times. Work involving the Heubach Dustmeter was conducted according to know standard procedures.
Seeds were equilibrated in incubator 308 at 20° C.±2° C. and at 50%±10% relative humidity for at least 48 hours prior to testing.
Treatments were weighed into sterile 1 L Duran bottles along with 500 g of maize seeds. The treatments were homogenized for 30 seconds by gently agitating using the Stuart Rotator with MIX2040 attachment. 50 maize seeds were removed from each batch, weighed, and placed in a bioassay jar for pre mechanical stress quality control analysis. One 100 g sample were removed from each batch.
The 100 g sample was mechanically stressed in the Heubach Dustmeter (Heubach GMbh, Heubachstrasse7, 38685 Langelsheim), following the procedures outlined in TDRF311. Work involving the Heubach Dustmeter was conducted between 23° C. and 29° C. and 30% and 70% relative humidity in Bioassay Room 2. After the cycle, treated seeds were removed from the rotating drum. 50 maize seeds were removed from each batch, weighed, and placed in a bioassay jar for post mechanical stress quality control analysis.
Azoxystrobin present on the seed samples taken before and after Heubach mechanical stress were analysed using gas chromatography with electron capture detector (GC-ECD). From these values the percentage change of Azoxystrobin a.s. retained by the seeds mechanical stress was calculated.
Percentage Azoxystrobin retained on maize seed after mechanical stress was modelled using R (version 3.3.1). After testing for normality using a Shapiro-Wilk normality test, ANOVA was used to analyse the data linear model. Percentage Azoxystrobin retention was modelled as a function of the factors formulations type (W3800 and W3738), Azoxystrobin application rate (0.006259, 0.06259 and 0.6259 g a.s./kg seed) and interactions between the factors. Formulation W3800 at its lowest application (0.006259 g a.s./kg seed) was used as the control.

[3] = system: Zymoseptoria tritici (formerly Septoria tritici); assay: Translaminar activity of Azoxystrobin formulated in Entostat against Z. tritici on wheat; assay type: in vivo; conditions: control of Zymoseptoria tritici; compared with conventional formulation
Source text: • Test item type and Entostat SC contains in 300 g/L Entostat (Polyethylene contents: wax variant), with the wax component formulated with 81.8 g/L Azoxystrobin (8.18% w/w Azoxystrobin in SC) • Test item rate: The Entostat formulation was applied at a rate 2.68 L/ha delivering 219 g a.i/ha (which delivers Azoxystar's maximum label amount of active ingredient). • Reference item type Azoxystar—SC Strobilurin fungicide containing […] and contents: of Azoxystrobin (22.9 w/w Azoxystrobin in SC). • Reference item rate: Azoxystar was applied at the maximum recommended label rate (0.88 L/ha delivering 219 g a.i/ha) • Application interval: Once at wheat growth stage 12
200 square plastic pots (7×7×8 cm) were filled with J. Arthur Bower No. 1 seedling compost and drenched with tap water. Into each pot six spring wheat (T. aestivum cv. KWS Kielder) seeds were double sown. The pots were placed within four Secret Jardin 120 growth tents in a fully randomised block design of 40 blocks (5 pots per block). All plants were grown under a light, temperature and relative humidity (RH) regime of 16:8 light/dark, 20° C./17° C. and 80% RH. Pots were watered via capillary matting with tap water when required. No additional nutrients were supplied throughout the study. Fourteen days after sowing the six plants in each pot were reduced to three of uniform size. […]

[4] = system: Triticum aestivum (Spring wheat) variety KWS Alderon; assay: Translaminar (herbicidal) activity of Quizalofop-p-ethyl formulations sprayed on wheat, EPPO PP1/135 assessment; assay type: in vivo; conditions: control of volunteer wheat; compared with conventional formulation
[5] = Loading of acetamiprid dry powder seed treatment on seeds; assay type: physicochemical
[6] = cited from earlier work

## CC1(C)[C@H](C(=O)O[C@H](C#N)c2cccc(Oc3ccccc3)c2)[C@@H]1/C=C(\Cl)C(F)(F)F (racemic) [lambda-cyhalothrin]
[1]; Emulsifiable Concentrate (EC)
  knock down period: 10.33 min
[1]; microencapsulated formulation
  knock down period: 17.16 min

## CO/C=C(/C(=O)OC)c1ccccc1Oc1cc(Oc2ccccc2C#N)ncn1 [Azoxystrobin, Methyl (2E)-2-(2-{[6-(2-cyanophenoxy)pyrimidin-4-yl]oxy}phenyl)-3-methoxyacrylate]
[2]; high application rate (0.6259 g a.s./Kg)
  less Azoxystrobin retained compared to the lowest application rate: 21%
[2]; high application rate (0.6259 g a.s./Kg), across formulations
  Azoxystrobin retained of original application: 41%
[2]; lowest application rate (0.006259 g a.s./Kg), across formulations W3800 and W3738
  Azoxystrobin retained of original application: 62%
[2]; medium application rate (0.06259 g a.s./Kg)
  less Azoxystrobin retained compared to the lowest application rate: 7%
[2]; medium application rate (0.06259 g a.s./Kg), across formulations
  Azoxystrobin retained of original application: 55%
[2]; medium dose, after mechanical stress
  dose of Azoxystrobin which remains on the surface of the maize: 0.0346 mg·s/kg
[3]
  effectiveness of Entostat matrix encapsulated formulation as foliar spray: as effective as a conventional Suspension Concentrate (SC) formulation

## CCOC(=O)[C@@H](C)Oc1ccc(Oc2cnc3cc(Cl)ccc3n2)cc1 [Quizalofop-p-ethyl, ethyl (2R)-2-[4-(6-chloroquinoxalin-2-yl)oxyphenoxy]propanoate]
[4]
  effectiveness of Entostat matrix encapsulated formulation as foliar spray: as effective as a conventional Suspension Concentrate (SC) formulation

## C/C(=N\C#N)N(C)Cc1ccc(Cl)nc1 [acetamiprid]
[5]; after 10 fold decrease in powder application
  relative percentage loading on seeds: 80%
[5]; before 10 fold decrease in powder application
  relative percentage loading on seeds: 52%

## CCOP(=S)(OCC)Oc1nc(Cl)c(Cl)cc1Cl [chlorpyrifos]
[6]; encapsulated formulation, sodium alginate and starch microspheres
  time to release 50% of the insecticide: 5 days
[6]; free chlorpyrifos
  time to release 50% of chlorpyrifos: 1 days
